From US20130317069A1, “2,4-(SUBSTITUTED AROMATIC)-1,3-OXAZOLINE COMPOUNDS AS A SEED TREATMENT TO CONTROL PESTS” (Dow Agrosciences LLC, priority 2012, published 2013)

Columns and labels:
[1] = test system: Spodoptera exigua (beet armyworm); assay: Insecticidal activity on beet armyworm, treated lepidopteran diet; assay type: in vivo; conditions: 120 h, Rate 400 PPM, 250 μL test solution on diet surface, second-instar larvae, 5 days at 25° C., five insects per treatment
Experimental: (§1) Different 2,4-(substituted aromatic)-1,3-oxazoline compounds were tested for insecticidal activity on Spodoptera exigua (beet armyworm) and Myzus persicae (green peach aphid).
The different 2,4-(substituted aromatic)-1,3-oxazoline compounds used on Spodoptera exigua were formulated as test solutions. To prepare the test solutions, the different 2,4-(substituted aromatic)-1,3-oxazoline compounds were formulated at 400 PPM in 7.5 mL of 2:1 acetone:tap water solvent. 250 μL of each test solution was pipetted upon the surface of 8 mL of lepidopteran diet (modified Shorey) contained in each of five one-ounce plastic cups (one cup=1 replication). A second-instar beet armyworm was placed upon the treated diet in each cup once the solvent had air-dried. The cups containing the treated lepidopteran diet and the beet armyworms were capped and then held in a growth chamber at 25° C., 50-55% RH, and 14 hours light:10 hours dark for 5 days. The average % mortality was determined from the number of dead insects of five per treatments.

[2] = test system: Myzus persicae (green peach aphid); assay: Insecticidal activity on green peach aphid, spray on infested cabbage leaves; assay type: in vivo; conditions: 72 h, Rate 50 PPM spray on infested cabbage leaves until runoff, graded after 3 days at 26° C., count compared with untreated check
Experimental: as §1
The different 2,4-(substituted aromatic)-1,3-oxazoline compounds used on Myzus persicae were formulated as test spray solutions. To prepare the test spray solutions, 1 mg of each of the different 2,4-(substituted aromatic)-1,3-oxazoline compounds was dissolved into 1 mL of a 90:10 acetone:ethanol solvent. The resulting solution was added to 19 mL of water containing 0.05% Tween surfactant to produce different 50 PPM spray solutions. Cabbage leaves were […] with green peach aphid (all life stages) 16-20 hours prior to application of the different spray solutions. The different spray solutions were sprayed on both sides of each infested cabbage leaf with a sweeping action until runoff. The cabbage leaves were allowed to dry and were held for 3 days in a controlled room at 26° C. and 40% RH, after which time the test was graded. Grading was by actual count using a dissecting microscope and comparison of test counts to an untreated check. The average % mortality was then determined. In Table 1, “NT” means insecticidal activity was not tested for the 2,4-(substituted aromatic)-1,3-oxazoline compound at this rate.

Compound C[C@@H]1OC(c2c(F)cccc2F)=N[C@@H]1c1ccc(-c2ccc(C(F)(F)F)cc2)cc1 (stereo in doubt) [(III)] has a mortality at 400 ppm [1] of 100% and a mortality at 50 ppm [2] of 32%.

Cc1ccc(-c2ccc([C@@H]3N=C(c4c(F)cccc4F)O[C@H]3C)cc2)cc1C (stereo in doubt) [(IX)] showed a mortality at 400 ppm [1] of 60% and a mortality at 50 ppm [2] of 0%.

Cc1ccccc1C1=N[C@@H](c2ccc(-c3ccc(C(F)(F)F)cc3)cc2)[C@@H](C)O1 (stereo in doubt) [(X)] gave a mortality at 400 ppm [1] of 100% and a mortality at 50 ppm [2] of 88%.

Cc1ccccc1C1=N[C@@H](c2ccc(-c3ccc(OC(F)(F)F)cc3)cc2)[C@@H](C)O1 (stereo in doubt) [(XI)] gave a mortality at 400 ppm [1] of 100% and a mortality at 50 ppm [2] of 71%.

With C[C@@H]1OC(c2c(F)cccc2Cl)=N[C@@H]1c1ccc(-c2ccc(OC(F)(F)F)cc2)cc1 (stereo in doubt) [(XII)] the mortality at 400 ppm [1] was 100% and the mortality at 50 ppm [2] was 86%.

CCOc1ccc(-c2ccc([C@H]3N=C(c4c(F)cccc4Cl)O[C@H]3C)cc2)cc1 (stereo in doubt) [(XIII)] was tested, and the mortality at 400 ppm [1] was 100% and the mortality at 50 ppm [2] was 82%.

For C[C@H]1OC(c2c(F)cccc2F)=N[C@H]1c1ccc(-c2ccc(OC(F)(F)F)cc2)cc1 (stereo in doubt) [(XVI)], the mortality at 400 ppm [1] was 100% and the mortality at 50 ppm [2] was 95%.

In the case of FC(F)(F)c1ccc(-c2ccc(C3COC(c4c(Cl)cncc4Cl)=N3)cc2)c(Cl)c1 (centres unmarked) [(I)], the mortality at 400 ppm [1] is reported as 100% and the mortality at 50 ppm [2] is reported as 18%.

Work on Fc1cncc(F)c1C1=NC(c2ccc(-c3ccc(C(F)(F)F)cc3)cc2)CO1 (centres unmarked) [(II)] yielded a mortality at 400 ppm [1] of 80%.

For Clc1cncc(Cl)c1C1=NC(c2ccc(-c3ccccc3)cc2)CO1 (centres unmarked) [(IV)], the mortality at 400 ppm [1] was 80%.

Work on Fc1ccc(C(F)(F)F)cc1-c1ccc(C2COC(c3c(Cl)cncc3Cl)=N2)cc1 (centres unmarked) [(V)] yielded a mortality at 400 ppm [1] of 60%.

For Cc1cc(-c2ccc(C(F)(F)F)cc2)ccc1C1COC(c2c(Cl)cncc2Cl)=N1 (centres unmarked) [(VI)], the mortality at 400 ppm [1] was 100% and the mortality at 50 ppm [2] was 20%.

With CCOc1ccc(-c2ccc(C3COC(c4c(Cl)cncc4Cl)=N3)c(C)c2)cc1 (centres unmarked) [(VII)] the mortality at 400 ppm [1] was 100% and the mortality at 50 ppm [2] was 82%.

In the case of Cc1cc(-c2ccc(OC(F)(F)F)cc2)ccc1C1COC(c2c(F)cccc2Cl)=N1 (centres unmarked) [(VIII)], the mortality at 400 ppm [1] is reported as 100% and the mortality at 50 ppm [2] is reported as 66%.

Compound CCOc1ccc(-c2ccc(C3N=C(c4c(F)cccc4F)OC3(C)C)cc2)cc1 (centres unmarked) [(XIV)] has a mortality at 400 ppm [1] of 60% and a mortality at 50 ppm [2] of 40%.

FC(F)(F)c1ccc(-c2ccc(C3COC(c4c(Cl)cncc4Cl)=N3)cc2)cc1 (centres unmarked) [(XV)] showed a mortality at 400 ppm [1] of 100% and a mortality at 50 ppm [2] of 75%.
